These results are taken from PMC8023582 (ACS Chemical Biology, 2021).

For the experiment, the target named is T1, RORα (Homo sapiens, UniProt P35398).
T1 sequence (P35398 272-510 limits assumed): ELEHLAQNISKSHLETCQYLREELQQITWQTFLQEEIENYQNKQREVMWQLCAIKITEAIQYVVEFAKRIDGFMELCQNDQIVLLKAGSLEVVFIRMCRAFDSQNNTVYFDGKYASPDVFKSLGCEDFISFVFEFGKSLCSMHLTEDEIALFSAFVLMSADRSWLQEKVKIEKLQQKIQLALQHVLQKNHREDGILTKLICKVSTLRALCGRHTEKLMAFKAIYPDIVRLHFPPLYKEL
As to the kind of experiment: TR-FRET coactivator recruitment assay on RORα. The class given is biochemical. Conditions: read-out: RORα: cofactor recruitment IC50; Figure 3B.

Consider `CC(C)CCC[C@@H](C)[C@H]1CC[C@H]2[C@@H]3CC=C4C[C@@H](OS(=O)(=O)O)CC[C@]4(C)[C@H]3CC[C@]12C` [Chol-SO4, sulfated cholesterol], for which the IC50 (usually the concentration that gives 50% inhibition) was 190 ± 50 nM.
